Target: Tyrosine-protein kinase ABL1 (Homo sapiens, UniProt P00519)
Experiment: Biochemical Kinase Assay
Protocol: Reagents and materials: ABL (ThermoFisher, Cat. No. PV3585), ABL T315I(Thermo Fisher, Cat. No. PR7429B), Ret (Carna, Cat. No. 08-159-10 ug), RETV804M, Active (Signalchem, Cat. No. R02-12GG), ATP (Sigma, Cat. No. A7699-1G), DMSO (Sigma, Cat. No. D2650), 96-well plate (Corning, Cat. No. 3365), 384-well plate (Greiner, Cat. No. 784076), buffer solution (Thermo Fisher, Cat. No. PR4876B). Specific Assay Method: Compound formulation: The test compounds were dissolved in DMSO to prepare a 20 mM stock solution. Before use, the compounds were diluted in DMSO to 0.1 mM, and diluted into 11 concentrations with a 3-fold gradient. When addition, dilutions of 4-fold final concentration were then made with buffer solution. Kinase assay method: After preparing the buffer, the enzyme was mixed with pre-formulated and diluted compounds of different concentrations in duplicate for each concentration, and placed at room temperature for 30 minutes. The corresponding substrate and ATP were added thereto,and reacted at room temperature for 60 minutes (both a negative and a positive control were set). After the reaction, antibody was added for detection, Envision detection was carried out after 60 minutes incubation at room temperature, and data was collected. Data analysis and fitting were made according to XLfit5 software.

Tyrosine-protein kinase ABL1, sequence (P00519 whole entry): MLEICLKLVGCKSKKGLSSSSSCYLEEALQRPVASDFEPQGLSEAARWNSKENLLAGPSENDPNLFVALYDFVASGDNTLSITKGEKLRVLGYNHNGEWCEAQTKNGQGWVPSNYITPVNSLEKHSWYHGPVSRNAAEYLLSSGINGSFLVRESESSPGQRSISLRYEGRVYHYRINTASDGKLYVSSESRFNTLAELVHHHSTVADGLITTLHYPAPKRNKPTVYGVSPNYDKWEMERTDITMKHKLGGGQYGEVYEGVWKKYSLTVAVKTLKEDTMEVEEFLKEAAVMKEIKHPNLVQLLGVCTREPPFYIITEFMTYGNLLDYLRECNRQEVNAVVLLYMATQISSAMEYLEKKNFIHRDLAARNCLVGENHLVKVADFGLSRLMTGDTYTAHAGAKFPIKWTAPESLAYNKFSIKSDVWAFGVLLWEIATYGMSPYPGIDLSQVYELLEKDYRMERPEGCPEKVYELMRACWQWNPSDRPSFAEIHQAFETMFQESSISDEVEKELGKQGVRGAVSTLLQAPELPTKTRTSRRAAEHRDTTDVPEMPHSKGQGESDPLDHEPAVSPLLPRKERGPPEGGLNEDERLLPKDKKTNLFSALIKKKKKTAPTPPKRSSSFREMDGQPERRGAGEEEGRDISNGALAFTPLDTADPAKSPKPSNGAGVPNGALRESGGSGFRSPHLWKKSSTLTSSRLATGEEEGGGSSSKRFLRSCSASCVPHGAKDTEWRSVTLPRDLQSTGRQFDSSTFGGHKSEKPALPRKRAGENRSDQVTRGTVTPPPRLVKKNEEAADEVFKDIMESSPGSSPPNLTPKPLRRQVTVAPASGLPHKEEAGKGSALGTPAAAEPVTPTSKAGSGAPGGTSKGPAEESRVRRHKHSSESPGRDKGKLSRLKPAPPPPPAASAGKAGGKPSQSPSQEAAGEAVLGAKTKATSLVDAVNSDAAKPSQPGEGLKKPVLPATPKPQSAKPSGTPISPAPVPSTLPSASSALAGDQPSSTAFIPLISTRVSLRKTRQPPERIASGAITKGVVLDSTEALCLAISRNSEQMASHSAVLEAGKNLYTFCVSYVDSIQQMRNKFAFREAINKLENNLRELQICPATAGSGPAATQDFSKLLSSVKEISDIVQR

SMILES	IC50 [nM]
Cc1ccc(NC(=O)Nc2ccc(Cl)c(C(F)(F)F)c2)cc1C#Cc1cnc2c(Nc3cnn(C)c3)nccn12 [US11746110, Example 7]	32.1
Cc1ccc(NC(=O)Nc2ccc(Cl)c(C(F)(F)F)c2)cc1C#Cc1cnc2c(Nc3cnn(C)c3)ccnn12 [US11746110, Example 16]	82.9

— BindingDB's records for patent US11746110 (Shenzhen Targetrx, 2023)
